Species on record: Rattus norvegicus
Assay: DrugMatrix - Regimen: Daily Repeat
Assay type: toxicity, organism-based, Sprague-Dawley
Parameters: regimen Daily Repeat, gender Male, age 6-8 weeks
Details: in vivo, po, route oral GAVAGE, […]; for URIC ACID / ALANINE AMINOTRANSFERASE / ALBUMIN / ALKALINE PHOSPHATASE / ASPARTATE AMINOTRANSFERASE / BLOOD UREA NITROGEN / CARBON DIOXIDE / CHLORIDE / CREATINE PHOSPHOKINASE / CREATININE / GLUCOSE / LACTATE DEHYDROGENASE / LIPASE / PHOSPHORUS / POTASSIUM / SODIUM / TOTAL BILIRUBIN / TOTAL PROTEIN / CHOLESTEROL: tissue Plasma; for ABSOLUTE BASOPHIL / ABSOLUTE EOSINOPHIL / ABSOLUTE LYMPHOCYTE / ABSOLUTE MONOCYTE / ABSOLUTE SEGMENTED NEUTROPHIL / BASOPHIL / EOSINOPHIL / ERYTHROCYTE COUNT / HEMATOCRIT / HEMOGLOBIN / LEUKOCYTE COUNT / LYMPHOCYTE / MEAN CORPUSCULAR HEMOGLOBIN / MEAN CORPUSCULAR HEMOGLOBIN CONCENTRATION / MONOCYTE / NEUTROPHIL / NUCLEATED RED BLOOD CELLS / PLATELET COUNT: tissue Blood
[1] = 250 mg/kg, 120 h, dose level Low, time 5 day
[2] = 2500 mg/kg, 72 h, dose level High, time 3 day
[3] = 2500 mg/kg, 120 h, dose level High, time 5 day

Cc1noc(NS(=O)(=O)c2ccc(N)cc2)c1C [SULFISOXAZOLE]
URIC ACID (250 mg/kg, 72 h, dose level Low, time 3 day): 1.8 mg/dL | ABSOLUTE BASOPHIL [1]: 0 CELLS/uL | ABSOLUTE EOSINOPHIL [1]: 0 CELLS/uL | ABSOLUTE LYMPHOCYTE [1]: 9180.67 CELLS/uL | ABSOLUTE MONOCYTE [1]: 0 CELLS/uL | ABSOLUTE SEGMENTED NEUTROPHIL [1]: 986 CELLS/uL | BASOPHIL [1]: 0% | EOSINOPHIL [1]: 0% | ERYTHROCYTE COUNT [1]: 5.62 x10E6/uL | HEMATOCRIT [1]: 34.93% | HEMOGLOBIN [1]: 13.27 G/DL | LEUKOCYTE COUNT [1]: 10.17 x10E3/uL | LYMPHOCYTE [1]: 90.67% | MEAN CORPUSCULAR HEMOGLOBIN [1]: 23.63 pg | MEAN CORPUSCULAR HEMOGLOBIN CONCENTRATION [1]: 38 G/DL | MONOCYTE [1]: 0% | NEUTROPHIL [1]: 9.33% | NUCLEATED RED BLOOD CELLS [1]: 0 /100WBC | PLATELET COUNT [1]: 1021 x10E3/uL | ALANINE AMINOTRANSFERASE [1]: 64.33 u/L | ALBUMIN [1]: 4 G/DL | ALKALINE PHOSPHATASE [1]: 394 u/L | ASPARTATE AMINOTRANSFERASE [1]: 103.67 u/L | BLOOD UREA NITROGEN [1]: 15 mg/dL | CARBON DIOXIDE [1]: 30.67 mmol/L | CHLORIDE [1]: 101.67 MEQ/L | CREATINE PHOSPHOKINASE [1]: 404 u/L | CREATININE [1]: 0.18 mg/dL | GLUCOSE [1]: 149.33 mg/dL | LACTATE DEHYDROGENASE [1]: 127.33 u/L | LIPASE [1]: 11 u/L | PHOSPHORUS [1]: 10.7 mg/dL | POTASSIUM [1]: 5.9 MEQ/L | SODIUM [1]: 143.87 MEQ/L | TOTAL BILIRUBIN [1]: 0.17 mg/dL | TOTAL PROTEIN [1]: 5.9 G/DL | URIC ACID [1]: 1 mg/dL | ABSOLUTE BASOPHIL [2]: 0 CELLS/uL | ABSOLUTE EOSINOPHIL [2]: 133 CELLS/uL | ABSOLUTE LYMPHOCYTE [2]: 8008.67 CELLS/uL | ABSOLUTE MONOCYTE [2]: 152 CELLS/uL | ABSOLUTE SEGMENTED NEUTROPHIL [2]: 3173 CELLS/uL | BASOPHIL [2]: 0% | EOSINOPHIL [2]: 1% | ERYTHROCYTE COUNT [2]: 4.62 x10E6/uL | HEMATOCRIT [2]: 28.6% | HEMOGLOBIN [2]: 11.27 G/DL | LEUKOCYTE COUNT [2]: 11.47 x10E3/uL | LYMPHOCYTE [2]: 67% | MEAN CORPUSCULAR HEMOGLOBIN [2]: 24.33 pg | MEAN CORPUSCULAR HEMOGLOBIN CONCENTRATION [2]: 39.47 G/DL | MONOCYTE [2]: 1% | NEUTROPHIL [2]: 31% | NUCLEATED RED BLOOD CELLS [2]: 0 /100WBC | PLATELET COUNT [2]: 1118.33 x10E3/uL | ALANINE AMINOTRANSFERASE [2]: 65.33 u/L | ALBUMIN [2]: 4 G/DL | ALKALINE PHOSPHATASE [2]: 312 u/L | ASPARTATE AMINOTRANSFERASE [2]: 109.67 u/L | BLOOD UREA NITROGEN [2]: 13.67 mg/dL | CARBON DIOXIDE [2]: 24.67 mmol/L | CHLORIDE [2]: 98.33 MEQ/L | CHOLESTEROL [2]: 78.33 mg/dL | CREATINE PHOSPHOKINASE [2]: 1633.33 u/L | CREATININE [2]: 0.24 mg/dL | GLUCOSE [2]: 172.33 mg/dL | LACTATE DEHYDROGENASE [2]: 198.67 u/L | LIPASE [2]: 10.67 u/L | PHOSPHORUS [2]: 11.6 mg/dL | POTASSIUM [2]: 4.69 MEQ/L | SODIUM [2]: 140.23 MEQ/L | TOTAL BILIRUBIN [2]: 0.0667 mg/dL | TOTAL PROTEIN [2]: 6.13 G/DL | URIC ACID [2]: 1.5 mg/dL | ABSOLUTE BASOPHIL [3]: 0 CELLS/uL | ABSOLUTE EOSINOPHIL [3]: 0 CELLS/uL | ABSOLUTE LYMPHOCYTE [3]: 10533.67 CELLS/uL | ABSOLUTE MONOCYTE [3]: 131 CELLS/uL | ABSOLUTE SEGMENTED NEUTROPHIL [3]: 502 CELLS/uL | BASOPHIL [3]: 0% | EOSINOPHIL [3]: 0% | ERYTHROCYTE COUNT [3]: 5.59 x10E6/uL | HEMATOCRIT [3]: 35.7% | HEMOGLOBIN [3]: 13.8 G/DL | LEUKOCYTE COUNT [3]: 11.17 x10E3/uL | LYMPHOCYTE [3]: 94.33% | MEAN CORPUSCULAR HEMOGLOBIN [3]: 24.7 pg | MEAN CORPUSCULAR HEMOGLOBIN CONCENTRATION [3]: 38.63 G/DL | MONOCYTE [3]: 1% | NEUTROPHIL [3]: 4.67% | NUCLEATED RED BLOOD CELLS [3]: 0 /100WBC | PLATELET COUNT [3]: 1151.33 x10E3/uL | ALANINE AMINOTRANSFERASE [3]: 87.67 u/L | ALBUMIN [3]: 4.17 G/DL | ALKALINE PHOSPHATASE [3]: 442.67 u/L | ASPARTATE AMINOTRANSFERASE [3]: 84.33 u/L | BLOOD UREA NITROGEN [3]: 19.33 mg/dL | CARBON DIOXIDE [3]: 31 mmol/L | CHLORIDE [3]: 101.67 MEQ/L | CHOLESTEROL [3]: 73.33 mg/dL | CREATINE PHOSPHOKINASE [3]: 296.67 u/L | CREATININE [3]: 0.23 mg/dL | GLUCOSE [3]: 139 mg/dL | LACTATE DEHYDROGENASE [3]: 98 u/L | LIPASE [3]: 11 u/L | PHOSPHORUS [3]: 9.13 mg/dL | POTASSIUM [3]: 5.93 MEQ/L | SODIUM [3]: 145.57 MEQ/L | TOTAL BILIRUBIN [3]: 0.1 mg/dL | TOTAL PROTEIN [3]: 6.3 G/DL | URIC ACID [3]: 0.97 mg/dL

Source: ChEMBL document CHEMBL3885881, “DrugMatrix”
